Laboratory results: patent US12661362B2, “Methods for the prevention and treatment of hearing loss” (Ting Therapeutics LLC, priority 2020, dated 2026)

Experiments:
zebrafish neuromast HCs [1] = assay: Zebrafish lateral-line neuromast hair cell protection against Cisplatin; type: in vivo, Danio rerio; details: doses of 0.002, 0.0183, 0.165 and 1.48 μM; Cisplatin 4 hours
Experimental: Danio rerio experimental larvae were obtained by pair mating of adult fish maintained at Creighton University by standard methods approved by the Institutional Animal Care and Use Committee. […] We used Tg(pou4f3:mGFP) expressing a membrane bound GFP in HCs. Experimental fish were maintained at 28.5° C. in E3 media (5 mM NaCl, 0.17 mM KCl, 0.33 mM CaCl2) and […], pH 7.2). Animals were cryoanaesthetized after drug treatment and prior to fixation. The neuromasts inspected, S03 and 01-2, were part of the cranial system and included the otic, middle, and opercular neuromasts.
Subsequently, animals were transferred to E3 water for 5 hours and fixed in 4% paraformaldehyde (PFA) overnight (26). Neuromast HCs were immunolabeled with anti-otoferlin (HCS-1, DSHB) and anti-GFP (NB100-1614, Novus Biologicals). These two markers were used to detect and count neuromast HCs to reduce the chances of missing some of the HCs after the treatment since we previously noticed that incubation with the compounds can affect GFP expression more difficult to detect under a fluorescence microscope. Otic, middle, and opercular neuromasts were identified, and HCs at S03 (supraorbital line neuromast) and 01-2 (Otic line neuromasts) were manually counted using a Zeiss AxioSkop 2 fluorescence microscope with a 40× oil objective. Compounds were then evaluated on efficiency and potency, with the top-rated compounds showing high protection at lower concentrations.

FVB/NJ mice = assay: Safety monitoring of drugs IP in FVB/NJ mice, with or without Cisplatin; type: in vivo, mouse; details: for weight loss, pain and distress: Niclosamide 10, Ingenol 0.3, Elesclomol 5 mg/kg/day IP, 4 consecutive days
Experimental: To investigate the drugs' effects on mammalian auditory function in vivo, we first treated 5-7 weeks old FVB/NJ mice with […] drug candidates: Niclosamide (10 mg/kg/day), Ingenol (0.3 mg/kg/day), Elesclomol (5 mg/kg/day), for 4 consecutive days (IP) to monitor safety of the drugs. All tested doses were determined based on previous published data showing maximum non-toxic dose through intraperitoneal (IP) injection.
Baseline auditory brainstem response (ABR) were measured on 16 mice divided in 3 groups receiving Ingenol, Elesclomol, and Niclosamide. The mice received the drug doses described above, then on day 2 of drug injection mice also received 30 mg/kg Cisplatin (IP; 4 mice per group).

HEI-OC1 cells = assay: Caspase-Glo 3/7 assay in HEI-OC1 cells treated with Cisplatin; type: cell-based, mouse; details: Cisplatin 50 μM; for caspase activity: at a dosage of ~40 μM
Experimental: Now referring to FIG. 3A, and FIGS. 3D-3E, compounds protect from cisplatin toxicity in the mouse inner ear cell line. House Ear Institute-Organ of Corti 1 (HEI-OC1) cells (House Research Institute) were maintained in high-glucose Dulbecco's modified Eagle medium supplemented with 10% fetal bovine serum (Life Technologies, USA) at 33° C. and 10% CO2 as previously described (Kalinec et al., 2003). Cells were seeded at 8,000 cells/well in 96 well plates and left to attach overnight. Now referring to FIG. 3A, For the drug screening, HEI-OC1 cells were pretreated with 30 drug candidates at concentrations ranging from 2 nM to 40 μM one hour before receiving cisplatin. The cisplatin dose (50 μM) was based on our previously published dose response curve. The cells were co-incubated with cisplatin and drug candidates for an additional 19 hours prior to Caspase-Glo 3/7 assay (Promega, Madison, WI) as previously shown. Additionally, […] kenpaullone-treated cells were used as positive controls to validate our results. The DMSO concentration in drug preparation was adjusted to 0.1% v/v and it was verified that 0.5% DMSO had no effect on the cell death kinetics (Hall et al., 2014). Results of the assay were run in triplicate and normalized to cisplatin-only and media-only controls. The percent caspase activity was used to determine the relative protective effect of each compound. The luminescence detection representing caspase activity in each well was obtained using a Cytation Hybrid Multi-Mode Reader (Biotek, Winooski, VT, USA). The percent protection of the cells was calculated using caspase 3/7 readouts and the following formula: […]
In the following examples, Niclosamide, 5-chloro-N-(2-chloro-4-nitrophenyl)-2-hydroxy-benzamide, with a ≥95% purity was used for all experiments (Cayman Chemical, USA).

[2] = chemotherapy; cited from earlier work
zebrafish neuromast HCs [3] = assay: Niclosamide/ezetimibe combination hair cell protection in Cisplatin-treated zebrafish (Loewe synergy); type: in vivo; details: 1.48 μM, cisplatin 300 μM
Experimental: Now referring to FIGS. 6A-6B, 5 dpf zebrafish were either incubated with vehicle (DMSO), cisplatin alone at 300 μM concentration, cisplatin and ezetimibe (0.002 μM to 13.3 μM), cisplatin and niclosamide (0.02 nM to 18.3 nM), or cisplatin and combination ezetimibe/niclosamide. After 6 hours, animals were transferred to fresh water for 1 hour and then sacrificed and processed for immunohistochemistry and HC count as described above. To further elucidate whether Niclosamide, synergizes with Nrf2 activators to protect zebrafish HCs from Cisplatin damage, we tested the extent of HC damage in presence of Niclosamide and a Nrf2 activator, ezetimibe.
A three-dimensional contour plot (A) showing dose response of neuromast hair cell protection in zebrafish treated with varying concentrations of niclosamide and ezetimibe mapped to synergy distribution. […] Other dose combinations showing synergy are shown in dark blue boxes. Dose combinations with scores of 0 and 1 show additive effect. *P<5×10−2; **P<10−3, ***P<10−4 versus control fish, One-sample t-test run by the Combenefit software44. Data is shown as mean±standard deviation.
Zebrafish were treated with combinations of Niclosamide (ranging from 0.02-18.3 nM) and EZ (ranging from 0.0183-13.3 μM).

With `CC1=C[C@]23C(=O)[C@@H](C=C(CO)[C@@H](O)[C@]2(O)[C@H]1O)[C@H]1[C@@H](C[C@H]3C)C1(C)C` [Ingenol] the “protection against CIHL in zebrafish” value (zebrafish neuromast HCs [1]) was “showed protection against CIHL”, the “weight loss, pain and distress” value (FVB/NJ mice) was “None of the mice showed reduced weight loss or signs of pain and distress” and the IC50 (HEI-OC1 cells; Mus musculus, HEI-OC1, HEI-OC1 cells, read-out: calculated IC50 (percent protection from caspase 3/7 readout)) was 1540 nM. The caspase activity (HEI-OC1 cells) was 30%.

For `N.N.[Cl][Pt][Cl]` [Cisplatin], the “treated cancer patients with permanent hearing loss” value [2] is given as 40-60% and the weight loss (FVB/NJ mice; Cisplatin alone, 30 mg/kg IP) is given as 10-15%.

In the case of `O=C1[C@H](CC[C@H](O)c2ccc(F)cc2)[C@@H](c2ccc(O)cc2)N1c1ccc(F)cc1` [Ezetimibe], the “HC per neuromast counts, compound alone” value (zebrafish neuromast HCs [3]) is reported as “higher HC per neuromast counts”.

With `CN(NC(=O)CC(=O)NN(C)C(=S)c1ccccc1)C(=S)c1ccccc1` [Elesclomol] the “weight loss, pain and distress” value (FVB/NJ mice) was “None of the mice showed reduced weight loss or signs of pain and distress”, the caspase activity (HEI-OC1 cells) was 20% and the “caspase-3/7 activity relative to control cells” value (HEI-OC1 cells; dose of 40 μM) was “reduce caspase activity to comparable levels as control cells”.
